Measurements: patent US5985630A, “Assay for detecting inhibitors of aminoacyl-tRNA synthetases” (Zeneca Limited, priority 1993, dated 1999)

Assays:
[1] = target: T1, E. coli ITRS (isoleucyl-tRNA synthetase) (Escherichia coli, UniProt P00956); test: Colorimetric assay based on valine as substrate (valine-based assay of the invention); format: biochemical; settings: 15 mM valine, 0.75 mM ATP, 37° C., read-out: Concentration giving 50% inhibition (I50)
T1 construct: endogenous in cells; enzyme partially purified in house
Protocol: 2. Measurement of ITRS activity using a Colorimetric Assay based on using Valine as Substrate
Incubations were set up in quadruplicate (as above) with a final volume of 200 μl as described below. Stock reagents used in the method were as follows:
(§1) Prepared as described above. The specific activity of the enzyme used in the present example was approximately 145 nM of product formed/minute/mg, and was about 5%-10% active. The enzyme was diluted as appropriate. It will be appreciated that the enzyme amounts in the assay can be adjusted according to the purity of the enzyme used.
(§2) The assay mixture for a final volume of 200 μl was composed of:
The standard assay (in 200 μl) was carried out in quadruplicate in Eppendorf microcentrifuge tubes. The ingredients were pre-incubated for 2-3 minutes at 37° C. and the reaction started by addition of 20 μl of appropriately diluted enzyme extract (as described above).
Thus the final reaction contained reagents in the following concentrations:
0.12 mg of mixed tRNA species from E. coli (as described above) HPLC purified from […] available from by Sigma (UK) Ltd 1 unit/μl of inorganic pyrophosphatase and
an appropriate concentration of ITRS (for example […] of the enzyme as described above).
The samples were incubated at 37° C. for 20-60 minutes. […] The optical absorbance is then measured at a wavelength of 630 nm using a spectrophotometer.

[2] = target: T1, E. coli ITRS (isoleucyl-tRNA synthetase); test: 3H-isoleucine-based radiolabelled (standard radiometric) assay; format: biochemical; settings: for IC50: standard 3H-isoleucine radiometric assay, 10 μM isoleucine, 1 mM ATP, 37° C., read-out: Concentration giving 50% inhibition (I50); for Mode of inhibition: with respect to the amino acid substrate, Compound 1 at 0, 0.25 μM and 1.0 μM with varying 3H-isoleucine up to 100 μM
Protocol: 2. Measurement of ITRS Activity using a ^3 H-Isoleucine-Based Radiolabelled Assay
The activity of ITRS during fractionation was monitored using conditions based on the method described by Steinmetz and Weil (7), and as described below. Stock reagents used in the method are as follows:
as §1, §2
The standard assay (in 200 μl) was carried out in quadruplicate in Eppendorf microcentrifuge tubes. The ingredients were preincubated for 2-3 minutes at 37° C., and the reaction started by addition of approximately 20 μl of the appropriately diluted enzyme extract as described above.
The final reaction contained reagents in the following concentrations:
0.1% bovine serum albumin
10 μM Isoleucine containing ^3 H-Ile
The assay was incubated at 37° C. for 20 minutes, and stopped by addition of 50 μl 20% TCA, and the tubes placed on ice.
200 μl of the reaction mixture was pipetted onto 1.5 cm^2 cellulose 3MM filters. The filters were washed (in groups of 4) as follows: 1×10% TCA, 2×5% TCA, and 2×ethanol using fresh wash medium for each set of replicates to avoid cross contamination. The dried filters were placed in 20 ml scintillation vials and the radioactivity counted in 15 ml Optiphase.
The inhibition constants of two compounds were measured and the results compared with the values obtained using the standard ^3 H-isoleucine assay.

T1 sequence (P00956 whole entry): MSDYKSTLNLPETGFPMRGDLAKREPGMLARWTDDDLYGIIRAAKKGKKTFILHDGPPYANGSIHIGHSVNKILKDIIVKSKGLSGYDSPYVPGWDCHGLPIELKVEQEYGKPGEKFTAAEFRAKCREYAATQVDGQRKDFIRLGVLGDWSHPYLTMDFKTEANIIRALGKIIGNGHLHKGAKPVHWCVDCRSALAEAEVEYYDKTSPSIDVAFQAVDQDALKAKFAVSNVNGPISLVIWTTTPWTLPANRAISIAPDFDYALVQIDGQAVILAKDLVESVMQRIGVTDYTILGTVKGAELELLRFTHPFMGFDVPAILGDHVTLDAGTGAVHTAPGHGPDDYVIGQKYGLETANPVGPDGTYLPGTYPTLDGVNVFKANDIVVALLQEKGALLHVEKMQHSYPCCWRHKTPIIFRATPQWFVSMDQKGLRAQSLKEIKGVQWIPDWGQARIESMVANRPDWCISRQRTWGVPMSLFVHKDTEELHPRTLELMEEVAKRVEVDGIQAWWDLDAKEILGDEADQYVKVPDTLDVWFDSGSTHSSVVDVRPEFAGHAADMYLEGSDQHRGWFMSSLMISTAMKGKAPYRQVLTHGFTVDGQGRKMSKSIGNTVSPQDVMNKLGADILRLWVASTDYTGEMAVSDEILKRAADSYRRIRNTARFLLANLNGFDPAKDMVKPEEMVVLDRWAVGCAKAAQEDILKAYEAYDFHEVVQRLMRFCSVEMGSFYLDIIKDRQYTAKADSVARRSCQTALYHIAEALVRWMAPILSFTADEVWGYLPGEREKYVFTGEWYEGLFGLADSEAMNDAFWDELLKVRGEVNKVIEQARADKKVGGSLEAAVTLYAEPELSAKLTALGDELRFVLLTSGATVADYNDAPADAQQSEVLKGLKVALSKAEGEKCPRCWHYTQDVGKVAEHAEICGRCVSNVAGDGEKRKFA

| Structure (SMILES) | IC50 [1] [nM] | IC50 [2] [nM] | Mode of inhibition [2] | Mode of inhibition ([2]; listed as compound 1) |
| --- | --- | --- | --- | --- |
| C=COCCOC(=O)C=C(C)CC1OCC(CC2OC2C(C)C(C)O)C(O)C1O (stereo not shown) [Compound 2] | 38 | 2.3 | competitive with the amino acid |  |
| CC(=O)C(C)C1OC1CC1COC(CC(C)=CC(=O)O)C(O)C1O (stereo not shown) [Compound 1] | 2000 | 109 | competitive with respect to isoleucine | competitive with the amino acid |
